The source made the active and inactive calls.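 Rule for the calls: active = compounds giving half or more protection of infected cells from virus-caused growth loss, again on retest; inactive = the rest.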
Tested on: CEM cells HIV-1 protection, formazan growth assay
Experiment: NCI AIDS Antiviral Assay
Settings: for IC50: measured here: growth of uninfected CEM cells
Outline: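 Soluble formazan readout of cell growth; CEM cells ± HIV-1; 5 drug concs. ≥50% protection → retest; ≥50% again = moderately active; reproducible 100% = confirmed active.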

| SMILES | EC50 | IC50 | outcome |
| --- | --- | --- | --- |
| C[Si](C)(C)C#CC#C[Si](C)(C)C.[Ni].[Ni].[Ni].[Ni].[c-]1[c-][c-][cH-][c-]1.[c-]1[c-][c-][cH-][c-]1.[c-]1[c-][c-][cH-][c-]1.[c-]1[c-][c-][cH-][c-]1 | > 2.09 µM | > 2.09 µM |  |
| CCCCCC/C(CC(=O)CCC(=O)NCCc1ccccc1)=N\Nc1ccc([N+](=O)[O-])cc1[N+](=O)[O-] | > 97.7 µM | > 97.7 µM |  |
| Cc1ccc(S(=O)(=O)c2ccc(C)cc2[N+](=O)[O-])cc1 | > 24.5 µM | > 24.5 µM |  |
| CC[C@@]12C=CC(=S)N(CCSc3ccccc3)[C@@H]1c1c(n(S(=O)(=O)c3ccc(OC)cc3)c3ccccc13)CC2 | > 126 µM | > 126 µM |  |
| C1CCSCCCCSCCCCSCCCCSC1 | > 102 µM | > 102 µM |  |
| COP1(=O)NCc2ncccc2O1 (stereo not given) | > 200 µM | > 200 µM |  |
| CN1C(=O)C=C(C=Nc2ccc(-c3ccccc3)cc2)C2CCCCC21 (stereo not given) | > 200 µM | 2.29 µM |  |
| O=c1[nH]cnc2c1nnn2CCCn1nnc2c(=O)[nH]cnc21 | > 200 µM | > 200 µM |  |
| O=C(NN1CCCCCC1)NS(=O)(=O)c1ccc(Cl)cc1 | > 200 µM | > 200 µM |  |
| O=[N+]([O-])c1cccc2nc3ccccc3c(NCCC[N+]3([O-])CCOCC3)c12 | > 2 µM | 0.105 µM |  |
| O=C1CC2C(CC3OC(=O)C4C3C23COC4(O)C(O)C3)c2occc21 (stereo not given) | > 200 µM | 3.24 µM |  |
| CC(NC(=O)c1ccccc1SC(=O)CCC[n+]1ccccc1)C(N)=O (stereo not given) | 2.24 µM | 19.1 µM |  |
| O=C(NC(Nc1ccc(F)c(Cl)c1)(C(F)(F)F)C(F)(F)F)OCc1ccccc1 | > 200 µM | 30.9 µM |  |
| CN(C)CCCN=C(N)CSP(=O)(O)O | > 200 µM | 32.4 µM |  |
| COC(=O)C1=Cc2cc(OC)c(O)cc2[C@@H](c2ccc(O)c(OC)c2)[C@@H]1C(=O)OC | > 200 µM | 77.6 µM |  |
| Cc1ccc(C)c(NC(=O)CC/C(=N\NC(=O)C(N)=O)C(C)C(=O)c2ccc(O)cc2)c1 (stereo not given) | > 155 µM | > 155 µM |  |
| C=CC(C)(C)n1cc(C2=C(O)C(=O)C(c3cn(C(C)(C)C=C)c4ccccc34)=C(O)C2=O)c2ccccc21 | > 22.4 µM | 12.3 µM |  |
| CC1(C)C2CC(=O)C1(C)C(OCc1ccccc1)C2Br (stereo not given) | > 200 µM | > 100 µM |  |
| CSCCC(NC(=O)OC(C)(C)C)C(=O)NCCNc1ccc(NCCNC(=O)C(CCSC)NC(=O)OC(C)(C)C)c2c1C(=O)c1ccccc1C2=O (stereo not given) | > 100 µM | > 100 µM |  |
| Fc1cccc(Cl)c1C1SCc2nc3ccccc3n21 (stereo not given) | 0.0479 µM | 3.8 µM |  |
| Cc1ccc(NC(=O)CC(=O)n2nc(-c3ccccc3)c(N=Nc3ccccc3C(=O)O)c2-c2ccccc2)cc1 | > 25.1 µM | > 25.1 µM |  |

| SMILES | EC50 | IC50 | outcome |
| --- | --- | --- | --- |
| NCCCC[C@@H](NC(=O)[C@H](CS)NC(=O)[C@@H](N)Cc1cnc[nH]1)C(=O)N[C@H](Cc1ccccc1)C(=O)N[C@H](Cc1c[nH]c2ccccc12)C(=O)N[C@@H](Cc1c[nH]c2ccccc12)C(N)=O | > 200 µM | > 200 µM |  |
| CC1c2c(cc(=O)n(C)c2O)C(=O)N1C (stereo not given) | 288 µM | 457 µM |  |
| CC1CC(=O)N(N(C)C)C(C#N)(C#N)C1(C#N)C#N (stereo not given) | > 200 µM | 3.16 µM |  |
| CC(=O)Nc1cccc(S(=O)(=O)c2cccc(NC(=O)c3ccccc3SC(=O)CCCC[n+]3ccccc3)c2)c1 | 17.8 µM | > 200 µM |  |
| COc1ccc(CC2NCCc3cc(OC)c(OC)cc32)cc1Br (stereo not given) | > 240 µM | 33.9 µM |  |
| Cc1nn(C(=O)c2ccc(Cl)cc2)c2c1C(/C=C/c1ccccc1)SC(N)=N2 (stereo not given) | 60.3 µM | 158 µM |  |
| CN(C)c1ccc(-c2c(C#N)c(-c3ccccc3)n(NS(=O)(=O)c3ccccc3)c(=O)c2C#N)cc1 | > 200 µM | 13.2 µM |  |
| CC(C)(C)CC(C)(C)c1ccc(OCCOCC[N+](C)(C)Cc2ccccc2)cc1 |  |  | inactive |
| CC(=C\c1ccccc1)/C=C1\C(=O)NC(=S)N1C=C1C(=O)NC(=O)NC1=O | > 200 µM | > 200 µM |  |
| CC1CN2COC(=S)SSSSC(=S)OCN3CC(C)N(COC(=S)SSSSC(=S)OCN1CC2C)CC3C (stereo not given) | > 100 µM | 12 µM |  |
| CCC(C)(O)c1cn(-c2ccc(S(=O)(=O)O)cc2)nn1 (stereo not given) | > 417 µM | > 417 µM |  |
| CCCC(N)S(=O)(=O)O (stereo not given) | > 200 µM | > 200 µM |  |
| CC12CCC3(C1)[C@H](CC2=O)C[C@@H](OC(=O)c1ccccc1)C1C(C)(C(=O)O)CCC[C@@]13C (stereo not given in full) | > 295 µM | 13.5 µM |  |
| CC1C(NNC(N)=O)Oc2cc3c(cc2C1c1ccccc1O)OCO3 (stereo not given) | > 200 µM | 32.4 µM |  |
| Cc1cn(C2CC(CO)N(CCO)O2)c(=O)[nH]c1=O (stereo not given) | > 200 µM | > 200 µM |  |
| CC(C)(C)c1cc(O)c2c(c1O)C(=O)CCC2 |  |  | inactive |
| CC(=C/c1ccccc1)/C=C1/NC(=S)N(/C=C2\C(=O)Oc3ccccc3C2=O)C1=O | > 200 µM | > 200 µM |  |
| C=C1CN=C(Nc2ccc(Cl)cc2)S1 | > 200 µM | 75.9 µM |  |
| CN(C)c1cccc2c(S(=O)(=O)NCCCNCCN)cccc12 | > 200 µM | 66.1 µM |  |
| CN(C)c1ccc(/C=N/NC(=S)Nc2ccccc2)cc1 | > 200 µM | > 200 µM |  |
